Data on one compound can be found in patent US20160024092A1, “INTRAVENOUS FORMULATIONS OF NEUROKININ-1 ANTAGONISTS” (OPKO Health, Inc., priority 2009, published 2016).

SMILES strings stand for the structures. Converted amounts (≈) assume the structure as drawn. Like-named read-outs stand apart in the source and are kept apart here. Bounds are passed on as bounds.

The conditions of data set [1]: in vivo.
Data set [2] in a line: Equilibrium solubility of Compound 1 (HPLC). Type of data set: physicochemical. As to conditions: for solubility thermodynamic: thermodynamic from solid, pH 7.0.
A further data set relates to red blood cells. Briefly: Hemolytic testing in rats after intravenous administration (hemoglobin in urine, Hemastix reagent strips). The class given is in vivo, rat. On the set-up: key: Hemastix scale: 0=negative, 1=non-hemolyzed trace … 6=large+++. As to conditions: 1-2 min slow-hand bolus, 10 mg/mL drug in 22% Solutol HS15, pH 7.0. The source says:
The term “hemolysis” as used herein means destruction of red blood cells which leads to the release of hemoglobin from within the red blood cells into the blood plasma. Hemolysis can be measured by methods well known in the art, e.g., Hemastix® reagent strips (Bayer Corp., Elkhart, Ind.) which detect blood in urine. The
Hemastix® reagent strips turn from yellow to dark green depending upon the amount of hemoglobin found in the urine. The Hemastix® scale is as follows: 0=negative, 1=non-hemolyzed trace, 3=hemolyzed trace, 4=small+, 5=moderate++, and 6=large+++.
Urine samples from the rats were assessed for hemolysis using Hemastix® reagent strips (No. 2190, Bayer Corp., Elkhart Ind.). […] The Hemastix® reagent strips detect the peroxide-like activity of hemoglobin. The strips turn from yellow to dark green depending upon the amount of hemoglobin found in the urine. The Hemastix® scale is as follows: 0=negative, 1=non-hemolyzed trace, 3=hemolyzed trace, 4=small+, 5=moderate++, and 6=large+++.
The methodology for this study was to administer (into the tail vein of a rat) each formulation over 15 minutes by intravenous infusion using an infusion pump or to administer the formulation within two minutes by bolus route using a syringe. Urine was tested for the presence of free hemoglobin using the pooled urine collection method at the six-hour interval. For the six hour pooled urine collection, rats were dosed and placed in a metabolism cage. Six hour post dose, the rats were euthanized by carbon dioxide over-inhalation, and the urine sample was collected. A minimum of five subjects were tested for each formulation and the urine samples were analyzed for hemolysis using Hemastix® reagent strips as indicated in Comparative Example 2.
[…] If the rat voided any urine in the cage, the urine was analyzed using Hemastix® reagent strips to determine the presence of hemoglobinuria.
The methodology for this example was to administer each formulation over 15 minutes by i.v. infusion using an infusion pump or to administer the formulations within 2 minutes by bolus injection using a syringe and delivering the formulation into the tail vein of a rat. Urine was tested by dipstick for the presence of free hemoglobin using the pooled urine collection method at the 6-hour interval.

A short description of the next data set: pKa of Compound 1. The class given is physicochemical.

Regarding `C[C@@H](OC[C@@]1(c2ccccc2)CC[C@]2(CCC(=O)N2)CN1)c1cc(C(F)(F)F)cc(C(F)(F)F)c1` [Compound 1, (5S,8S)-8-[{(1R)-1-(3,5-Bis-(trifluoromethyl)phenyl)-ethoxy}-methyl]-8-phenyl-1,7-diazaspiro[4.5]decan-2-one], the “time at which half concentration is achieved” value in data set [1] is on record as “around 180 hrs”. Moreover, the thermodynamic solubility – broadly, solubility found after equilibrating the solid with the medium – was < 0.006 mg/mL in data set [2] (16% Captisol (sulfobutyl ether beta-cyclodextrin), aqueous with cosolvent or surfactant or cyclodextrin, 16% Captisol) and ~50 mg/mL (≈ 99.9 mM) in data set [2] (aqueous with cosolvent or surfactant or cyclodextrin, 20% Solutol). Also, the solubility (in general, the dissolved amount per volume that the medium holds) in data set [2] (22% Solutol, aqueous with cosolvent or surfactant or cyclodextrin) was 50 mg/mL (≈ 99.9 mM); in data set [2] (pH 7.4, aqueous buffer, read-out: solubility at the physiological pH of 7.4) it was < 0.004 mg/mL. For the same compound, the “Hemolysis (Female rats)” value with red blood cells (10 mg/kg, 15 min) came out at 1; in the data set on red blood cells (10 mg/kg, 30 min), 1; in the data set with red blood cells (10 mg/kg, 60 min) it was 0; with red blood cells (20 mg/kg, 15 min), 3; in the data set with red blood cells (20 mg/kg, 30 min), 0; in the data set with red blood cells (20 mg/kg, 60 min), 0. Also, the “Hemolysis (Female rats)” value with red blood cells (30 mg/kg, 15 min) was determined as 3; with red blood cells (30 mg/kg, 30 min) it was 2; in the data set on red blood cells (30 mg/kg, 60 min), 0. In addition, the “Hemolysis (Male rats)” value with red blood cells (10 mg/kg, 15 min) was determined as 3; in the data set on red blood cells (10 mg/kg, 30 min) it was 0; with red blood cells (10 mg/kg, 60 min) it was 0; in the data set on red blood cells (20 mg/kg, 15 min), 3; with red blood cells (20 mg/kg, 30 min) it was 3; in the data set with red blood cells (20 mg/kg, 60 min), 0. Besides, the “Hemolysis (Male rats)” value is reported as 3 in the data set on red blood cells (30 mg/kg, 15 min); 0 with red blood cells (30 mg/kg, 30 min); 0 in the data set with red blood cells (30 mg/kg, 60 min). Also, in the data set “pKa of Compound 1”, the pKa (in general, the negative logarithm of the acid dissociation constant) amounted to 6.9.
